Measured values reported in patent US9309198B2, “N-[3-(2-carboxyethyl)phenyl]piperidin-1-ylacetamide derivatives and use thereof as activators of soluble guanylate cyclase” (Bayer Pharma Aktiengesellschaft, priority 2012, dated 2016).
Counter-ions that a name gives are not always drawn.

What was measured:
[1] = target: T1, recombinant guanylate cyclase reporter cell line (sGC, CHO reporter cell) (Rattus norvegicus, UniProt P20595); assay: Effect on a recombinant guanylate cyclase reporter cell line (CHO reporter cell); format: cell-based
T1 construct: expressed in transfected cells; host or cells: CHO reporter cell line
T1 sequence (P20595 1-619): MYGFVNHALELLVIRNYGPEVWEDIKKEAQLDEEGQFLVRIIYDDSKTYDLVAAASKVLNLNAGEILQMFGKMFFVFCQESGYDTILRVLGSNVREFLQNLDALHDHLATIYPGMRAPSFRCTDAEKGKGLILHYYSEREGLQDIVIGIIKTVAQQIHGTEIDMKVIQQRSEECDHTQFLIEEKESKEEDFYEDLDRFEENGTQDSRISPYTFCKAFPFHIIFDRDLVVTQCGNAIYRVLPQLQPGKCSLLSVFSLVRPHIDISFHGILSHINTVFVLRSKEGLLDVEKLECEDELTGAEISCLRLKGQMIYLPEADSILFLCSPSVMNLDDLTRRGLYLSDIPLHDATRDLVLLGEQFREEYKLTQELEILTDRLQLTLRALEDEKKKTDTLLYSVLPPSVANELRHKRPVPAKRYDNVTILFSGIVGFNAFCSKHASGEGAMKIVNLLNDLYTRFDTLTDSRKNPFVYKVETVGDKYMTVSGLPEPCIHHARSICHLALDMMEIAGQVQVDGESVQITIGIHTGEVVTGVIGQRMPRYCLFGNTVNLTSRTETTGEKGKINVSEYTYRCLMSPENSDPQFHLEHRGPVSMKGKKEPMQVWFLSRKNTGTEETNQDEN
T1 sequence (P19686 1-690 partner): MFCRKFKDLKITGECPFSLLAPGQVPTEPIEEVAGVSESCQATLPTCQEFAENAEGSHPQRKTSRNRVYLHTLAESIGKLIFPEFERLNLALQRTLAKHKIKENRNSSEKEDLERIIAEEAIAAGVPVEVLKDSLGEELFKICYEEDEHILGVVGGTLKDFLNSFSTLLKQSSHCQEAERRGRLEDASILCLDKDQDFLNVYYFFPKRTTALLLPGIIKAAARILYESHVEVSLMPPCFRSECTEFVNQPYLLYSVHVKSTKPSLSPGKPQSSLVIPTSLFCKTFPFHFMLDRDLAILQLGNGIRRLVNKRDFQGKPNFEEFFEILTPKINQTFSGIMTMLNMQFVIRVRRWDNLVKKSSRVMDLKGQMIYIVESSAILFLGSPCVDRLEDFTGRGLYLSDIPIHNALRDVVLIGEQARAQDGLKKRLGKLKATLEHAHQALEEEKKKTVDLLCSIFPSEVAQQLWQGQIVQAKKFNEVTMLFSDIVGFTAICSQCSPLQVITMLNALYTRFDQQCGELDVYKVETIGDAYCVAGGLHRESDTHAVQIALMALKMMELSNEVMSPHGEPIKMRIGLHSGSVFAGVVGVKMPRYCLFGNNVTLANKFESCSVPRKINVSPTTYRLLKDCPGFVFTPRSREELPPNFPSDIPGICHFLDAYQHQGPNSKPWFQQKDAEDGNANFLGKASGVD
Method: B-2. Effect on a Recombinant Guanylate Cyclase Reporter Cell Line The cellular activity of the compounds according to the invention is determined using a recombinant guanylate cyclase reporter cell line, as described in F. Wunder et al., Anal. Biochem. 339, 104-112 (2005).

[2] = target: T2, soluble guanylate cyclase (sGC) (Rattus norvegicus, UniProt P20595); assay: Stimulation of sGC enzyme activity (PPi detection, luciferase luminescence); format: biochemical; details: for EC50: read-out: EC50 (half-maximal effective concentration), activating action at the sGC enzyme in vitro
T2 construct: made in house
T2 sequence (P20595 1-619): T1 sequence (P20595 1-619)
T2 sequence (P19686 1-690 partner): T1 sequence (P19686 1-690 partner)
Method: B-3. Stimulation of sGC Enzyme Activity
Soluble guanylate cyclase (sGC) converts on stimulation GTP into cGMP and pyrophosphate (PPi). PPi is detected with the aid of the assay described below. The signal produced in the assay increases as the reaction progresses and serves as a measure of the sGC enzyme activity under the given stimulation.
To carry out the assay, 29 μl of enzyme solution [0-10 nM soluble guanylate cyclase (prepared according to Hönicka et al., J. Mol. Med. 77, 14-23 (1999)) in 50 mM TEA, 2 mM MgCl2, 0.1% BSA (fraction V), 0.005% Brij®, pH 7.5] are initially introduced into a microplate, and 1 μl of the substance to be tested (as a serially diluted solution in DMSO) is added. The mixture is incubated at room temperature for 10 min. Then 20 μl of detection mix [1.2 nM Firefly Luciferase (Photinus pyralis luciferase, Promega), 29 μM dehydroluciferin (prepared according to Bitler & McElroy, Arch. Biochem. Biophys. 72, 358 (1957)), 122 μM luciferin (Promega), 153 μM ATP (Sigma) and 0.4 mM DTT (Sigma) in 50 mM TEA, 2 mM MgCl2, 0.1% BSA (fraction V), 0.005% Brij®, pH 7.5] are added. The enzyme reaction is started by adding 20 μl of substrate solution [1.25 mM guanosine 5′-triphosphate (Sigma) in 50 mM TEA, 2 mM MgCl2, 0.1% BSA (fraction V), 0.005% Brij®, pH 7.5] and measured continuously in a luminometer. The extent of the stimulation by the substance to be tested can be determined relative to the signal of the unstimulated reaction.
The activation of haem-free guanylate cyclase is examined by addition of 25 μM of 1H-1,2,4-oxadiazolo[4,3-a]quinoxalin-1-one (ODQ) to the enzyme solution and subsequent incubation for 30 minutes and compared to the stimulation of the native enzyme.

SMILES | MEC (minimum effective concentration), sGC-activating activity in the CHO reporter cell in vitro [1] | MEC (minimum effective concentration), activating action at the sGC enzyme in vitro [2] | EC50 [2]
C[C@H]([C@H](C(=O)Nc1cc(C[C@H](C)C(=O)O)ccc1Cl)N1CCC(C(F)(F)F)CC1)C(F)(F)F [Example 34] | 10 nM | 10.5 nM | 0.09 µM
CCC1CCN(C(C(=O)Nc2cc(CCC(=O)O)ccc2Cl)C(C)C(F)(F)F)CC1 (single isomer, unassigned) [Example 11, 3-(4-chloro-3-{[2-(4-ethylpiperidin-1-yl)-4,4,4-trifluoro-3-methylbutanoyl]amino}phenyl)propanoic acid] | 10 nM | 17 nM | 0.39 µM
CC1CCN(C(C(=O)Nc2cc(CCC(=O)O)ccc2Cl)C(C)C(F)(F)F)CC1 (racemic) [Example 1, 3-(4-Chloro-3-{[4,4,4-trifluoro-3-methyl-2-(4-methylpiperidin-1-yl)butanoyl]amino}phenyl)propanoic acid] | 20 nM | – | –
CC(C(C(=O)Nc1cc(CC2(C(=O)O)CC2)ccc1F)N1CCCCC1)C(F)(F)F (single isomer, unassigned) [Example 2, 1-(4-fluoro-3-{[4,4,4-trifluoro-3-methyl-2-(piperidin-1-yl)butanoyl]amino}benzyl)cyclopropanecarboxylic acid] | 20 nM | – | –
CC1CCN([C@@H](C(=O)Nc2cc(C[C@H](C)C(=O)O)ccc2F)[C@@H](C)C(F)(F)F)CC1 [Example 32] | 30 nM | – | –
CC1CCN(C(C(=O)Nc2cc(CC3(C(=O)O)CC3)ccc2F)C(C)C(F)(F)F)CC1 (single isomer, unassigned) [Example 4, 1-(4-fluoro-3-{[4,4,4-trifluoro-3-methyl-2-(4-methylpiperidin-1-yl)butanoyl]amino}benzyl)cyclopropanecarboxylic acid] | 5 nM | – | –
C[C@H]([C@H](C(=O)Nc1cc(C[C@H](C)C(=O)O)ccc1F)N1CCC2(CC1)CC2)C(F)(F)F [Example 28] | 20 nM | – | –
C[C@H]([C@H](C(=O)Nc1cc([C@@H](C)CC(=O)O)ccc1Cl)N1CCC(C(F)(F)F)CC1)C(F)(F)F [Example 23] | 3 nM | – | –
C[C@H](Cc1ccc(Cl)c(NC(=O)[C@@H]([C@@H](C)C(F)(F)F)N2CCC3(CC2)CC3)c1)C(=O)O [Example 29] | 30 nM | – | –
CC(C(C(=O)Nc1cc(CC2(C(=O)O)CC2)ccc1F)N1CCCCC1)C(F)(F)F (stereo not drawn) [Example 3] | 60 nM | – | –
CC1CCN(C(C(=O)Nc2cc(CCC(=O)O)ccc2F)C(C)C(F)(F)F)CC1 (stereo not drawn) [Example 5] | 30 nM | – | –
C[C@H](Cc1ccc(F)c(NC(=O)[C@@H]([C@@H](C)C(F)(F)F)N2CCC3(CC2)CC3)c1)C(=O)O [Example 33] | 300 nM | – | –
CCC1CCN(C(C(=O)Nc2cc(CCC(=O)O)ccc2F)C(C)C(F)(F)F)CC1 (stereo not drawn) [Example 10] | 30 nM | – | –
CC1CCN([C@@H](C(=O)Nc2cc(C[C@@H](C)C(=O)O)ccc2F)[C@@H](C)C(F)(F)F)CC1 [Example 30] | 300 nM | – | –
C[C@H]([C@H](C(=O)Nc1cc(CCC(=O)O)ccc1F)N1CCC(C(F)(F)F)CC1)C(F)(F)F [Example 24] | 100 nM | – | –
CC1CCN(C(C(=O)Nc2cc(CCC(=O)O)ccc2Cl)C(C)C(F)(F)F)CC1 (single isomer, unassigned) [Example 13, 3-(4-chloro-3-{[4,4,4-trifluoro-3-methyl-2-(4-methylpiperidin-1-yl)butanoyl]amino}phenyl)propanoic acid] | 30 nM | – | –

Other lines, results leading:

MEC (minimum effective concentration), sGC-activating activity in the CHO reporter cell in vitro [1] | MEC (minimum effective concentration), activating action at the sGC enzyme in vitro [2] | EC50 [2] | SMILES
10 nM | 17 nM | 0.21 µM | C[C@H]([C@H](C(=O)Nc1cc(C[C@H](C)C(=O)O)ccc1Cl)N1CCC2(CC1)CC2)C(F)(F)F (single isomer, unassigned) [Example 46]
0.3 nM | 1.1 nM | 0.0079 µM | CCC1CCN([C@@H](C(=O)Nc2cc(CC3(C(=O)O)CC3)ccc2F)[C@@H](C)C(F)(F)F)CC1 (single isomer, unassigned) [Example 39]
10 nM | – | – | CC1CCN([C@@H](C(=O)Nc2cc(CCC(=O)O)ccc2Cl)[C@@H](C)C(F)(F)F)CC1 (single isomer, unassigned) [Example 43]
3000 nM | – | – | COC1CCN(C(C(=O)Nc2cc(CC3(C(=O)O)CC3)ccc2F)C2CCCC2)CC1 (racemic) [Example 52, rac-1-(3-{[Cyclopentyl(4-methoxypiperidin-1-yl)acetyl]amino}-4-fluorobenzyl)cyclopropanecarboxylic acid trifluoroacetate]
300 nM | – | – | CCC1CCN([C@H](C(=O)Nc2cc(CC3(C(=O)O)CC3)ccc2F)[C@H](C)C(F)(F)F)CC1 (single isomer, unassigned) [Example 38]
3 nM | – | – | CCC1CCN([C@@H](C(=O)Nc2cc(CCC(=O)O)ccc2Cl)[C@@H](C)C(F)(F)F)CC1 (single isomer, unassigned) [Example 45]
1000 nM | – | – | CCC1CCN([C@H](C(=O)Nc2cc(CCC(=O)O)ccc2F)[C@H](C)C(F)(F)F)CC1 (single isomer, unassigned) [Example 40]
1000 nM | – | – | CCC1CCN([C@H](C(=O)Nc2cc(CCC(=O)O)ccc2Cl)[C@H](C)C(F)(F)F)CC1 (single isomer, unassigned) [Example 44]
10 nM | – | – | CCC1CCN([C@@H](C(=O)Nc2cc(CCC(=O)O)ccc2F)[C@@H](C)C(F)(F)F)CC1 (single isomer, unassigned) [Example 41]
